Reference: paper PMC6424956, “A MALDI-TOF-based Method for Studying the Transport of BBB Shuttles—Enhancing Sensitivity and Versatility of Cell-Based In Vitro Transport Models” (Scientific Reports, 2019)
Like-named read-outs stand apart in the source and are kept apart here. Numbered stars: 1 amine (or outer) side, 2 acyl side, 3 side chain; on linkers, the order of the positions; unused ones are H or OH. Square brackets hold non-standard residues; d marks the D form. Peptide text beside a SMILES is read from it. X1 = O=C([C@H]1[C@@H](c2ccccc2)CCN1[*:1])[*:2]; X2 = O=C([C@@H]1[C@H](c2ccccc2)CCN1[*:1])[*:2]; dAla(4-thiazolyl) = N[C@H](Cc1cscn1)C(=O)O; Tic(7-OH) = O=C(O)[C@@H]1Cc2ccc(O)cc2CN1; Phe(4-NH2) = Nc1ccc(C[C@H](N)C(=O)O)cc1; Phe(4-F) = N[C@@H](Cc1ccc(F)cc1)C(=O)O; hCha = N[C@@H](CCC1CCCCC1)C(=O)O

What was measured:
[1] = Peptide stability in human serum; type: in vitro ADME; details: for Protease resistance (in human serum): result in words
Description: Peptides were dissolved in 1 mL of HBSS buffer/human serum (from human male AB plasma; Sigma-Aldrich) 10:90 (v/v) at a final concentration of 200 µM and incubated at 37 °C for 24 h. Aliquots of 50 µL were extracted at a range of incubation times and treated with 200 µL of cold CH3OH (4 °C) to precipitate serum proteins. After 30 min, samples were centrifuged at 13,000 g and 4 °C for 30 min. Supernatants were analyzed by RP-HPLC-PDA and MALDI-TOF MS, using similar procedures as for the quantification of the in vitro cell-based BBB model.

[2] = In vitro bovine BBB cell-based model transport assay; details: bovine, 200 μM peptide in Ringer-HEPES, 2 h, 37 °C, mean ± SD, n = 3
Description: (§1) Peptides were evaluated through an in vitro bovine BBB cell-based model (Fig. 2a). Transport (T) and permeability (Papp) for all peptides were quantified by RP-HPLC-PDA and by MALDI-TOF MS (Fig. 2). The former method determined transport by applying the ratio between the peak areas integrated in the chromatograms from the acceptor and donor wells, further corrected by the volumes injected and the volumes contained in each well (see Eq. 1). The latter entails the spiking of the heavy version of the peptide as internal standard into an aliquot of the light peptide (Fig. 2b). The MS intensity for light/heavy ratios for acceptor and donor wells is representative of the relative amount of peptide in each well when corrected by their volume (detailed in Eq. 2).1 T=QAI(t)/QDI(t0)×VDI/VAI×VAW/VDW×100(%) where QAI(t) and QDI(t0) account for the integrated area in the HPLC chromatograms of acceptor (at time t = 2 h) and donor (at time t0 = 0) wells, respectively; VDI and VAI are the injected volumes from donor and acceptor wells, respectively; and VAW and VDW are the volumes in each acceptor and donor well, respectively.2 T=QALight(t)/Q^Heavy/QDLight(t0)/(R×Q^Heavy)×VAW/VDW×100(%) QALight(t)/Q^Heavy accounts for the relative amount of the light peptide in the acceptor well (at time t) compared with a prepared dilution of the heavy isomer (at 2 μM). QDLight(t0)/(R×Q^Heavy) determines the relative amount of light peptide in the donor well (at time t = 0) compared with a prepared dilution of the heavy isomer (at 200 μM; i.e. in our case R = 100).
(§2) In general, transport (see Eq. 3) can be described by the total amount of peptide in the acceptor well at time t, QA(t) , divided by the initial amount in the donor well, QD(t0) , while apparent permeability (Papp), widely used in the literature, normalizes transport by the transwell area, volume in donor well and time (see Eq. 4). […] In these cases, an approximate value was determined.
(§3) This assay was an adapted model[5] of the method previously published by Gaillard and de Boer[49]. Before performing the assay, TEER was measured in all transwells (TEER > 100 Ω·cm^2). […] The apical compartment was filled with 200 μL of the solution containing the peptide, and 800 µL of Ringer-HEPES was poured into the basal well. Three replicates of each peptide were assayed. The plate was left for 2 h in the incubator at 37 °C. Finally, the samples were collected and analyzed or frozen until analysis. LY fluorescence was measured in a 96-well plate with a Fluoroskan Ascent Microplate Fluorometer (Thermo Fisher Scientific). Two parameters were determined, namely transport (T (%)) and apparent permeability (Papp(cm/s)). RP-HPLC-PDA (220 nm) and MALDI-TOF MS were used to determine the amounts of peptide in each sample.
(§4) Transport was calculated using Eq. 2. […] Peak-picking and determination of peak area ratios was performed using Data Explorer version 4.5 (Applied Biosystems).

[3] = test system: in vitro bovine BBB cell-based model; assay: as above; details: for Transport (%) MALDI-TOF MS / Transport (%) RP-HPLC-PDA: 200 μM peptide in Ringer-HEPES, 2 h, 37 °C, mean ± SD, n = 3; for Transport (%) MALDI-TOF MS: quantified by MALDI-TOF MS with heavy internal standard; for Transport (%) RP-HPLC-PDA: quantified by RP-HPLC-PDA (220 nm), some values approximate (below LOQ); for Increase in transport compared to the parent peptide (1 L): bovine BBB model, MALDI-TOF MS quantification, transport normalized by parent peptide 1 L
Description: as §1, §2, §3, §4

[4] = Parallel artificial membrane permeability assay (PAMPA); type: in vitro ADME; details: pig, porcine brain polar lipid extract
Description: Passive diffusion was ruled out as the mechanism responsible for transport when the peptides (1 L, 6D, 7 − D and 8D) were assayed by PAMPA, an in vitro physico-chemical model where the transport by passive diffusion of compounds is evaluated through a membrane containing the lipid composition of interest (in our case, a porcine brain polar lipid extract (BPLE) to mimic the BBB lipid barrier). […] Note that when these values fall below 2.0 × 10^−6 cm/s compounds are considered to be poorly transported by passive diffusion.
The PAMPA assay was used to exclude passive diffusion capacity across the BBB. The standard parameter that quantifies transport independently of time and concentrations is effective permeability, Pe=−218.3/tLog(1−2CA(t)/CD(t0))×10^−6cm/s; where t is the running time (4 h), CA (t) is the concentration of the compound in the acceptor well at time t, and CD (t0) is the compound concentration in the donor well before running the PAMPA assay (t0 = 0 h). […] The protocol followed was the same as that previously used by Arranz-Gibert et al.[1]. Permeability is considered excellent with values >4.0 × 10^−6) cm/s, uncertain between 2.0 × 10^−6 and 4.0 × 10^−6 cm/s, and poor with values below 2.0 × 10^−6) cm/s[41].

[5] = test system: in vitro human model of the BBB (brain-like endothelial cells from human cord blood-derived hematopoietic stem cells co-cultured with bovine pericytes); assay: In vitro human BBB cell-based model transport assay
Description: The aforementioned peptides were assayed as in the other BBB model using either Ringer-HEPES buffer (the one commonly used in these assays) or supplemented ECM medium. The use of medium in this assay allows (1) the extension of the incubation time and (2) the use of more similar conditions to those found physiologically.
Endothelial cells and pericytes were defrosted in gelatin-coated Petri dishes (Corning). Pericytes and endothelial cells were cultured in DMEM pH 6.8 or in supplemented endothelial cell growth medium (Sciencells), respectively. After 48 h, pericytes (50,000 cells/well) and endothelial cells (80,000 cells/well) were seeded in gelatin-coated 12-well plates or in Matrigel-coated 12-well Transwell inserts (Corning), respectively. Medium was changed every 2–3 days and assays were performed 7–8 days after seeding. […] LY fluorescence was measured in a 96-well plate with a Fluoroskan Ascent Microplate Fluorometer (Thermo Fisher Scientific). Compounds were dissolved in Ringer-HEPES at a concentration of 200 µM. Then, 500 µL of the compound and 1,500 µL of Ringer-HEPES alone were introduced in the apical or in the basolateral compartments, respectively. The plates were set on at 37 °C for 2 h. The solutions from both compartments were then recovered and quantified by HPLC and identified by MALDI-TOF.

[6] = Papp MALDI-TOF MS, quantified by MALDI-TOF MS with heavy internal standard
[7] = Papp RP-HPLC-PDA, quantified by RP-HPLC-PDA (220 nm)
[8] = 4 h, n = 3, values are Pe · 10^6, read-out: Pe · 10^6 (effective permeability)
[9] = read-out: Permeability values (PAMPA), bound in the text

Row | Molecule | Protease resistance (in human serum) [1] | Papp at 2 h, 200 μM [2, 6] [×10⁻⁶ cm/s] | Papp at 2 h, 200 μM [2, 7] [×10⁻⁶ cm/s] | Transport (%) MALDI-TOF MS [3] [%] | Transport (%) RP-HPLC-PDA [3] [%] | Increase in transport compared to the parent peptide (1 L) [3] | Papp at 4 h [4, 8] [×10⁻⁶ cm/s] | Papp at 4 h [4, 9] [×10⁻⁶ cm/s] | Papp of Lucifer Yellow (internal control) ([5]; 50 µM Lucifer Yellow as internal control) | Papp of Lucifer yellow (control) ([3]; 20 μM Lucifer yellow lithium salt as control in Ringer-HEPES) | half-life at 200 µM ([1]; male, HBSS buffer/human serum 10:90 (v/v), 200 µM, 37 °C, 24 h, non-linear regression, read-out: t1/2 in human serum (converted)) [h] | Transport relative to the parent peptide 1 L (HAI), buffer ([5]; human BBB model, Ringer-HEPES buffer) | Transport relative to the parent peptide 1 L (HAI), medium ([5]; human BBB model, supplemented ECM medium)
1 | CC[C@@H](C)[C@@H](NC(=O)[C@@H](Cc1ccc(O)cc1)NC(=O)[C@H]1CCCCN1C(=O)[C@@H](CCCNC(=N)N)NC(=O)[C@@H](Cc1c[nH]cn1)NC(C)=O)C(=O)N[C@H](C)C(=O)N[C@H](Cc1c[nH]cn1)C(N)=O [Peptide 8D, Ac-hrxyiah-NH2] | high resistance to protease degradation | 6.3 ± 0.8 | 6.1 ± 0.8 | 7.5 ± 1.0 | 7.2 ± 0.9 | two-fold | 0.34 | < 0.4 | – | – | – | – | –
2 | CC[C@H](C)[C@H](NC(=O)[C@H](C)NC(=O)[C@H](Cc1c[nH]cn1)NC(C)=O)C(=O)N[C@@H](Cc1ccc(F)cc1)C(=O)N1CCC[C@H]1C(=O)N[C@@H](CCCNC(=N)N)C(=O)N[C@@H](Cc1c[nH]cn1)C(N)=O [Peptide 5L, Ac-HAIxPRH-NH2] (Ac-HAI[Phe(4-F)]PRH-NH2) | – | 2.6 ± 1.3 | 2.9 ± 1.3 | 3.1 ± 1.6 | 3.4 ± 1.6 | – | – | – | – | – | – | – | –
3 | CC[C@@H](C)[C@@H](NC(=O)[C@@H](Cc1ccc(O)cc1)NC(=O)[C@H]1CCCN1C(=O)[C@@H](CCCNC(=N)N)NC(=O)[C@@H](Cc1cscn1)NC(C)=O)C(=O)N[C@H](C)C(=O)N[C@H](Cc1c[nH]cn1)C(N)=O [Peptide 9D, Ac-xrpyiah-NH2] (Ac-[dAla(4-thiazolyl)][dR][dP][dY][dI][dA][dH]-NH2) | – | 2.4 ± 1 | 3.7 ± 0.4 | 2.9 ± 1.2 | 4.4 ± 0.5 | – | – | – | – | – | – | – | –
4 | CC[C@@H](C)[C@@H](NC(=O)[C@@H](Cc1ccc(O)cc1)NC(=O)[C@H]1CCCN1C(=O)[C@@H](CCCNC(=N)N)NC(=O)[C@@H](Cc1c[nH]cn1)NC(C)=O)C(=O)N[C@H](C)C(=O)N[C@H](Cc1c[nH]cn1)C(N)=O [Peptide 6D, Ac-hrpyiah-NH2] | – | 2.6 ± 0.7 | 4.5 ± 1.5 | 3.1 ± 0.9 | 5.3 ± 1.8 | – | 0.34 | < 0.4 | – | – | – | – | –
5 | CC[C@@H](C)[C@@H](NC(=O)[C@@H](Cc1ccc(O)cc1)NC(=O)[C@@H]1[C@H](c2ccccc2)CCN1C(=O)[C@@H](CCCNC(=N)N)NC(=O)[C@@H](Cc1c[nH]cn1)NC(C)=O)C(=O)N[C@H](C)C(=O)N[C@H](Cc1c[nH]cn1)C(N)=O [7+D, Ac-hrxyiah-NH2] (Ac-[dH][dR][X2][dY][dI][dA][dH]-NH2) | – | 5.7 ± 1.9 | 5.7 ± 1 | 7 ± 2 | 6.8 ± 1.2 | two-fold | – | – | – | – | – | – | –
6 | Lucifer yellow (LY) lithium salt [reference compound] | – | – | – | – | – | – | – | – | < 15 ·10^−6 cm/s | < 17 ·10^−6 cm/s | – | – | –
7 | CC[C@H](C)[C@H](NC(=O)[C@H](C)NC(=O)[C@H](Cc1c[nH]cn1)NC(C)=O)C(=O)N1Cc2cc(O)ccc2C[C@H]1C(=O)N1CCC[C@H]1C(=O)N[C@@H](CCCNC(=N)N)C(=O)N[C@@H](Cc1c[nH]cn1)C(N)=O [Peptide 3L, Ac-HAIxPRH-NH2] (Ac-HAI[Tic(7-OH)]PRH-NH2) | – | 2.1 ± 1 | 1.7 ± 0.6 | 2.5 ± 1.2 | 2.0 ± 0.8 | – | – | – | – | – | – | – | –
8 | CC[C@H](C)[C@H](NC(=O)[C@H](C)NC(=O)[C@H](Cc1c[nH]cn1)NC(C)=O)C(=O)N[C@@H](Cc1ccc(O)cc1)C(=O)N1CCC[C@H]1C(=O)N[C@@H](CCCNC(=N)N)C(=O)N[C@@H](Cc1c[nH]cn1)C(N)=O [Peptide 1L, Ac-HAIYPRH-NH2] | – | 3.2 ± 1.2 | 2.5 ± 1.1 | 3.8 ± 1.4 | 2.9 ± 1.4 | – | 0.18 | < 0.4 | – | – | 3.3 | – | –
9 | CC(=O)N[C@@H](Cc1c[nH]cn1)C(=O)N[C@@H](C)C(=O)N[C@@H](CCC1CCCCC1)C(=O)N[C@@H](Cc1ccc(O)cc1)C(=O)N1CCC[C@H]1C(=O)N[C@@H](CCCNC(=N)N)C(=O)N[C@@H](Cc1c[nH]cn1)C(N)=O [Peptide 2L, Ac-HAxYPRH-NH2] (Ac-HA[hCha]YPRH-NH2) | – | 2.8 ± 0.6 | 3.3 ± 0.7 | 3.4 ± 0.7 | 3.9 ± 0.9 | – | – | – | – | – | – | – | –
10 | CC[C@H](C)[C@H](NC(=O)[C@H](C)NC(=O)[C@H](Cc1c[nH]cn1)NC(C)=O)C(=O)N[C@@H](Cc1ccc(N)cc1)C(=O)N1CCC[C@H]1C(=O)N[C@@H](CCCNC(=N)N)C(=O)N[C@@H](Cc1c[nH]cn1)C(N)=O [Peptide 4L, Ac-HAIxPRH-NH2] (Ac-HAI[Phe(4-NH2)]PRH-NH2) | – | 1.8 ± 0.4 | 1.6 ± 0.8 | 2.1 ± 0.5 | 2.0 ± 0.9 | – | – | – | – | – | – | – | –
11 | CC[C@@H](C)[C@@H](NC(=O)[C@@H](Cc1ccc(O)cc1)NC(=O)[C@H]1[C@@H](c2ccccc2)CCN1C(=O)[C@@H](CCCNC(=N)N)NC(=O)[C@@H](Cc1c[nH]cn1)NC(C)=O)C(=O)N[C@H](C)C(=O)N[C@H](Cc1c[nH]cn1)C(N)=O [Peptide 7-D, Ac-hrxyiah-NH2] (Ac-[dH][dR][X1][dY][dI][dA][dH]-NH2) | high resistance to protease degradation | 6 ± 2 | 4.8 ± 1.5 | 7 ± 3 | 5.7 ± 1.8 | two-fold | 0.33 | < 0.4 | – | – | – | around 1.5 fold | eight-
